What was measured:
[1] = system: rat liver mitochondria (RLM); test: Mitochondrial transmembrane electric potential (safranine fluorescence); type: biochemical
Description: In an embodiment, and as an example, the toxicity effects of some AntiOxBENs and MitoQ on the mitochondrial bioenergetics, namely on RLM Δψ and respiration parameters, were measured. The Δψ represents the main component of the electrochemical gradient generated by mitochondrial respiration and accounts for more than 90% of the total available energy. For mitochondrial respiration assays, glutamate/malate (for complex I) and succinate (for complex II) were used as substrates. In addition, the mitochondrial oxidative phosphorylation coupling index, known as respiratory control ratio (RCR, state 3/state 4 respiration) and ADP/O index (the coupling between ATP synthesis and oxygen consumption) were also calculated. AntiOxBENs and MitoQ were tested at antioxidant-relevant concentrations, with 10 μM being the highest concentration.
In an embodiment, the evaluation of AntiOxBENs effect on mitochondrial transmembrane electric potential (Δψ) was performed as follows: the mitochondrial transmembrane electric potential (Δψ) was estimated through the evaluation of fluorescence changes of safranine (5 μM) and was recorded on a spectrofluorometer operating at excitation and emission wavelengths of 495 and 586 nm, with a slit width of 5 nm. Increasing concentrations of AntiOxBENs (2.5-10 μM) were added to the reaction medium (200 mM sucrose, 1 mM KH2PO^4, 10 mM Tris (pH 7.4) and 10 μM EGTA) containing respiratory substrates glutamate/malate (5 mM and 2.5 mM respectively) or succinate (5 mM) and RLM (0.5 mg in 2 mL final volume) and allowed to incubate for a 5 min period prior to initiate the assay, at 25° C. In this assay, safranine (5 μM) and ADP (25 nmol) were used to initiate the assay and to induce depolarization, respectively. Then, 1 μM FCCP was added at the end of all experiments to depolarize mitochondria. Δψ was calculated using a calibration curve obtained when RLM were incubated in a K^+-free reaction medium containing 200 mM sucrose, 1 mM NaH2PO4, 10 mM Tris (pH 7.4) and 10 μM EGTA, supplemented with 0.4 μg valinomicin. […] “Repolarization” corresponded to the recovery of membrane potential after the complete phosphorylation of ADP added. Lag phase reflected the time required to phosphorylate the added ADP. Isolated RLM developed a Δψ≈226 mV and Δψ≈202 mV (negative inside) when glutamate/malate or succinate were used, respectively. Data are means±SEM of five independent experiments.

[2] = system: rat liver mitochondria (RLM); test: Mitochondrial uptake by energised RLM, TPP-selective electrode; type: in vitro ADME
Description: In an embodiment, and as an example, the mitochondrial uptake of some AntiOxBENs was assessed in isolated rat liver mitochondria (RLM) in response to the membrane potential. AntiOxBENs can accumulate inside mitochondria driven by the Δψ (FIG. 3A). Different AntiOxBENs accumulation outlines within the mitochondrial matrix have been measured. […] The following ranking order was attained: AntiOxBEN2<AntiOxBEN1<AntiOxBEN3.
In an embodiment, the AntiOxBENs mitochondria uptake by energized RLM was evaluated as follows: RLM (0.5 mg protein/mL) were incubated with AntiOxBENs at 37° C. under constant stirring in 1 mL of KCl medium (120 mM KCl, 10 mM HEPES, pH 7.2 and 1 mM EGTA). Five sequential 1 μM additions of each AntiOxBENs were performed to calibrate the electrode response in the presence of rotenone (1.5 μM). Then, succinate (10 mM) was added to generate […]. Valinomicin (0.2 μg/mL) was added at the end of the assay to dissipate Δψ. The measurements were performed with an ion-selective electrode, which measure the distribution of tetraphenylphosphonium cation (TPP+) and Ag/AgCl2 electrode as reference. The mitochondrial accumulation ratio was calculated by the disappearance of AntiOxBENs from extra- to intramitochondrial medium assuming an intramitochondrial volume of 0.5 μL/mg protein and a binding correction for the mitochondrial uptake of TPP compounds.

[3] = system: human hepatocellular carcinoma cells (HepG2); test: Cytotoxicity, SRB method; type: cell-based
Description: In an embodiment, and as an example, the cytotoxicity of AntiOxBENs was assessed using monolayer cultures of human hepatocytes from hepatocellular carcinoma (HepG2) and SRB method (FIG. 8).
In an embodiment, the cytotoxicity profile of AntiOxBENs was evaluated in human hepatocellular carcinoma HepG2 cells. Human hepatocellular carcinoma HepG2 cells were cultured in high-glucose medium composed by Dulbecco's modified Eagle's medium (DMEM; D5648) supplemented with sodium pyruvate (0.11 g/L), sodium bicarbonate (1.8 g/L) and 10% fetal bovine serum (FBS) and 1% of antibiotic penicillin-streptomycin 100× solution. Cells were maintained at 37° C. in a humidified incubator with 5% CO2. HepG2 cells were seeded at density of 4×10^4 cells/mL and grown for 24 hours before treatment.
In an embodiment the cytotoxicity screening was performed as follows: cells were placed on 48-well plate (2×10^4 cells/500 μL) and then were incubated during 48 hour with AntiOxBENs concentrations ranging 25 μM to 500 μM. After incubation, sulforhodamine B (SRB) assay was used for cell density determination based on the measurement of cellular protein content. Briefly, after incubation, the medium was removed and wells rinsed with PBS […]. Cells were fixed by adding 1% acetic acid in 100% methanol for at least 2 hours at −20° C. Later, the fixation solution was discarded and the plates were dried in an oven at 37° C. Two hundred and fifty microliters of 0.5% SRB in 1% acetic acid solution was added and incubated at 37° C. for 1 h. The wells were then washed with 1% acetic acid in water and dried. Then, 500 μl of Tris (pH 10) was added and the plates were stirred for 15 min. Finally, 200 μl of each supernatant was transferred in 96-well plates and optical density was measured at 540 nm. Data are means±SEM of four independent experiments and the results are expressed as percentage of control (control=100%), which represents the cell density without any treatment in the respective time point.

SMILES	ADP-induced depolarization (ΔΨ in - mV) ([1]; Glutamate/Malate, 2.5 μM)	Lag Phase ([1]; Glutamate/Malate, 2.5 μM)	Maximum potential (ΔΨ in - mV) ([1]; Glutamate/Malate, 2.5 μM)	Repolarization Potential (ΔΨ in - mV) ([1]; Glutamate/Malate, 2.5 μM)	ADP-induced depolarization (ΔΨ in - mV) ([1]; Glutamate/Malate, 5 μM)	Lag Phase ([1]; Glutamate/Malate, 5 μM)	Maximum potential (ΔΨ in - mV) ([1]; Glutamate/Malate, 5 μM)	Repolarization Potential (ΔΨ in - mV) ([1]; Glutamate/Malate, 5 μM)	ADP-induced depolarization (ΔΨ in - mV) ([1]; Glutamate/Malate, 10 μM)	Lag Phase ([1]; Glutamate/Malate, 10 μM)	Maximum potential (ΔΨ in - mV) ([1]; Glutamate/Malate, 10 μM)	Repolarization Potential (ΔΨ in - mV) ([1]; Glutamate/Malate, 10 μM)	ADP-induced depolarization (ΔΨ in - mV) ([1]; Succinate, 2.5 μM)	Lag Phase ([1]; Succinate, 2.5 μM)	Maximum potential (ΔΨ in - mV) ([1]; Succinate, 2.5 μM)	Repolarization Potential (ΔΨ in - mV) ([1]; Succinate, 2.5 μM)	ADP-induced depolarization (ΔΨ in - mV) ([1]; Succinate, 5 μM)	Lag Phase ([1]; Succinate, 5 μM)	Maximum potential (ΔΨ in - mV) ([1]; Succinate, 5 μM)	Repolarization Potential (ΔΨ in - mV) ([1]; Succinate, 5 μM)	also measured
O=C(NCCCCCC[P+](c1ccccc1)(c1ccccc1)c1ccccc1)c1ccc(O)c(O)c1.[Br-] [AntiOxBEN1, 6-(3,4-dihydroxybenzamido)hexyltriphenylphosphonium bromide]	199.5 ± 16.6 - mV	131.8 ± 18.9 s	216.8 ± 18.9 - mV	212.3 ± 18.2 - mV	209.4 ± 20.3 - mV	137.8 ± 22.5 s	224.8 ± 24.7 - mV	219.0 ± 22.9 - mV	192.6 ± 15.0 - mV	148.7 ± 48.4 s	200.4 ± 16.0 - mV	199.4 ± 17.1 - mV	180.3 ± 17.1 - mV	120.0 ± 32.1 s	191.4 ± 18.2 - mV	190.3 ± 17.4 - mV	175.4 ± 12.9 - mV	93.6 ± 29.2 s	184.9 ± 13.1 - mV	181.0 ± 13.5 - mV	ADP-induced depolarization (ΔΨ in - mV) ([1]; Succinate, 10 μM): 182.4 ± 14.4 - mV; Lag Phase ([1]; Succinate, 10 μM): 105.0 ± 28.1 s; Maximum potential (ΔΨ in - mV) ([1]; Succinate, 10 μM): 188.9 ± 14.8 - mV; Repolarization Potential (ΔΨ in - mV) ([1]; Succinate, 10 μM): 188.8 ± 15.8 - mV; accumulation ratio by rat liver mitochondria ([2]; energised RLM, succinate): AntiOxBEN2<AntiOxBEN1<AntiOxBEN3; toxicity / effect on HepG2 cell proliferation ([3]; HepG2, 48 hour, 25 μM to 500 μM, SRB): small inhibition of cell proliferation for lower concentrations; concentrations at which cell proliferation was stimulated ([3]; HepG2, 48 hour, SRB): higher than 100 μM
O=C(NCCCCCC[P+](c1ccccc1)(c1ccccc1)c1ccccc1)c1cc(O)c(O)c(O)c1.[Br-] [AntiOxBEN2, 6-(3,4,5-trihydroxybenzamido)hexyltriphenylphosphonium bromide]	200.5 ± 17.5 - mV	124.7 ± 19.2 s	217.8 ± 18.8 - mV	216.8 ± 17.9 - mV	194.9 ± 15.6 - mV	147.5 ± 31.2 s	212.2 ± 19.8 - mV	209.0 ± 17.8 - mV	200.1 ± 18.2 - mV	146.2 ± 30.9 s	209.5 ± 19.1 - mV	208.4 ± 18.6 - mV	184.5 ± 19.2 - mV	115.4 ± 21.0 s	197.6 ± 18.2 - mV	193.6 ± 17.8 - mV	191.2 ± 17.8 - mV	118.0 ± 26.4 s	204.6 ± 18.1 - mV	200.4 ± 17.0 - mV	ADP-induced depolarization (ΔΨ in - mV) ([1]; Succinate, 10 μM): 190.9 ± 16.8 - mV; Lag Phase ([1]; Succinate, 10 μM): 124.8 ± 37.2 s; Maximum potential (ΔΨ in - mV) ([1]; Succinate, 10 μM): 199.8 ± 16.0 - mV; Repolarization Potential (ΔΨ in - mV) ([1]; Succinate, 10 μM): 198.6 ± 17.2 - mV; accumulation ratio by rat liver mitochondria ([2]; energised RLM, succinate): AntiOxBEN2<AntiOxBEN1<AntiOxBEN3; concentrations at which cell proliferation was stimulated ([3]; HepG2, 48 hour, SRB): lower than 250 μM
O=C(CCCCC[P+](c1ccccc1)(c1ccccc1)c1ccccc1)NCCCCCCNC(=O)c1cc(O)c(O)c(O)c1.[Br-] [AntiOxBEN3, [5-(6-(3,4,5-trihydroxybenzamido)hexylamino)carbonylpentyl]triphenylphosphonium bromide]	202.9 ± 18.7 - mV	137.5 ± 20.3 s	221.1 ± 20.2 - mV	217.0 ± 17.7 - mV	204.5 ± 21.6 - mV	154.5 ± 21.5 s	221.4 ± 22.6 - mV	216.4 ± 21.3 - mV	216.4 ± 25.3 - mV	143.0 ± 21.7 s	227.5 ± 26.3 - mV	222.9 ± 25.4 - mV	188.0 ± 19.7 - mV	132.6 ± 22.7 s	203.6 ± 16.6 - mV	198.4 ± 18.4 - mV	191.1 ± 20.0 - mV	119.8 ± 32.2 s	205.3 ± 19.4 - mV	199.1 ± 19.2 - mV	ADP-induced depolarization (ΔΨ in - mV) ([1]; Succinate, 10 μM): 198.2 ± 19.3 - mV; Lag Phase ([1]; Succinate, 10 μM): 114.4 ± 24.3 s; Maximum potential (ΔΨ in - mV) ([1]; Succinate, 10 μM): 207.9 ± 19.3 - mV; Repolarization Potential (ΔΨ in - mV) ([1]; Succinate, 10 μM): 207.5 ± 19.4 - mV; accumulation ratio by rat liver mitochondria ([2]; rat, 5 μM, pH 7.2): AntiOxBEN2<AntiOxBEN1<AntiOxBEN3; concentrations at which cell proliferation was significantly inhibited ([3]; human, 48 h): higher than 250 μM
